{"source": "paper PMC7044277", "about": "(Nature Communications, 2020)", "assay_type_in_all_cases": "cell-based", "key": {"[1]": {"molecular_target": "T1, 320 non-olfactory GPCRs (Homo sapiens, UniProt Q9H1Y3)", "T1 construct": "expressed in transfected cells; host or cells: HTLA cells", "T1 sequence (Q9H1Y3 whole entry)": "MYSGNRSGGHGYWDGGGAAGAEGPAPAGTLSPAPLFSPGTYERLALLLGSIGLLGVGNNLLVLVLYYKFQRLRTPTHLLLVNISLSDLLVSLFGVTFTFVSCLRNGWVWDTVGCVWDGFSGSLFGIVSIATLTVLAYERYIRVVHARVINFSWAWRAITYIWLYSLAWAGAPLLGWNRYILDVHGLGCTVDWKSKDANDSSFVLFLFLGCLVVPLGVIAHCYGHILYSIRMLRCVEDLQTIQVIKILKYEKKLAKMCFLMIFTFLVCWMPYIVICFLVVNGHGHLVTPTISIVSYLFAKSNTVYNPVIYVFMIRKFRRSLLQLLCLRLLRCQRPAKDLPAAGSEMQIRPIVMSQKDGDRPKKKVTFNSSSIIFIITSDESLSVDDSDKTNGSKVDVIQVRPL", "settings": "receptor OPN3; replicate values, Fig_4g"}, "[2]": {"molecular_target": "T2, 320 non-olfactory GPCRs (Homo sapiens, UniProt P33032)", "T2 construct": "expressed in transfected cells; host or cells: HTLA cells", "T2 sequence (P33032 whole entry)": "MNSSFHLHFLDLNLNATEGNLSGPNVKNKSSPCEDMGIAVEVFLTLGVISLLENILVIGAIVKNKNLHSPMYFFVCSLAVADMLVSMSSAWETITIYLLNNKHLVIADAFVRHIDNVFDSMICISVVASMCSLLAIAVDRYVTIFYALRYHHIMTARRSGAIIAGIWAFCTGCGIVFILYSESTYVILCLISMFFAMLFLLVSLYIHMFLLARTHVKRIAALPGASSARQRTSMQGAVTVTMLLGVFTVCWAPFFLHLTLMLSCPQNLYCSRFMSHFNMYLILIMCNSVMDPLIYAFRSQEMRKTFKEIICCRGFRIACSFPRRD", "settings": "receptor MC5R; replicate values, Fig_4g"}, "[3]": {"molecular_target": "T3, 320 non-olfactory GPCRs (Homo sapiens, UniProt P46663)", "T3 construct": "expressed in transfected cells; host or cells: HTLA cells", "T3 sequence (P46663 whole entry)": "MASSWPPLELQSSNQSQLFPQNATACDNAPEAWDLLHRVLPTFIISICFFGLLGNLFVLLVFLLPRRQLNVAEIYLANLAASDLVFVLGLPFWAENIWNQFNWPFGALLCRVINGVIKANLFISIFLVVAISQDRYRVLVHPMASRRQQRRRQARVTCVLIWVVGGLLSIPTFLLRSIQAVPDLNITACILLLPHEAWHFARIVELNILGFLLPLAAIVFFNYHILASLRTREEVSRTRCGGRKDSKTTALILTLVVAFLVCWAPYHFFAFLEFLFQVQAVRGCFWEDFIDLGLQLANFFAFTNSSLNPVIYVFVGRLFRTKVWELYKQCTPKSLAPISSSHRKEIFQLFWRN"}, "[4]": {"molecular_target": "320 non-olfactory GPCRs (Homo sapiens, UniProt P35462)", "sequence (P35462 whole entry)": "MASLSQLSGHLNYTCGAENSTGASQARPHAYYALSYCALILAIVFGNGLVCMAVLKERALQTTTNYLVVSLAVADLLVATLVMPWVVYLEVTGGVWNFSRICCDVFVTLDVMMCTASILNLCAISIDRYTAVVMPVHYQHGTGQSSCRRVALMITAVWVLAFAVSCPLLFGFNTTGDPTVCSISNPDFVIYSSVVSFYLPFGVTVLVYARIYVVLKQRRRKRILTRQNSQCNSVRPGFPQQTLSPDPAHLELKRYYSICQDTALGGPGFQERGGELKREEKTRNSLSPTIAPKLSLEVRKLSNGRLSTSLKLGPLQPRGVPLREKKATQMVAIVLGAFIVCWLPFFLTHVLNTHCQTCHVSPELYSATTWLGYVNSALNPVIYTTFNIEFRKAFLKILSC"}}, "note": "Several values for one entry are separate records, joined by “and”; a condition that tells them apart may be missing. Equal entries are not always repeated.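 Wherever Fold of Basal is given: compound tested at 1 µM final concentration.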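 Wherever GPCRome agonism screen response is given: fold over basal response of each receptor without drug.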", "data": [{"smiles": "CCOc1cccc2cc(C(C)NCC3(O)CCCCC3)oc12", "note": "(stereo not shown) [O4LE6]", "values": [{"measurement": "GPCRome agonism screen response", "setting": "[1]", "result": "1.462 and 1.944 and 1.753 and 1.142"}, {"measurement": "GPCRome agonism screen response", "setting": "[2]", "result": "1.253 and 1.116 and 1.497 and 1.062"}, {"measurement": "Fold of Basal", "setting": "[3]", "result": "0.6703 and 0.866 and 0.6219 and 0.6427"}, {"measurement": "Fold of Basal", "setting": "[4]", "result": "9.324 and 11.1304 and 9.776 and 11.3977"}]}]}
